Calls of active or inactive are those of the source. The calls are words filed in the database; no cut-off is given here.
Experiments:
A9 [1] = test: (§1) Inhibition of class 1 HDAC in mouse A9 cells after 30 mins by luminescent assay; format: cell-based
[2] = as §1; format: cell-based
A9 [3] = test: (§2) Inhibition of class 2 HDAC in mouse A9 cells after 30 mins by luminescent assay; format: cell-based
[4] = as §2; format: cell-based
[5] = biological target: T1, Protein deacetylase HDAC6 (Homo sapiens) (UniProt Q9UBN7); test: Inhibition of human HDAC6 at 330 uM by HDAC-Glo1/2 luminescent assay relative to control
T1 sequence (whole entry): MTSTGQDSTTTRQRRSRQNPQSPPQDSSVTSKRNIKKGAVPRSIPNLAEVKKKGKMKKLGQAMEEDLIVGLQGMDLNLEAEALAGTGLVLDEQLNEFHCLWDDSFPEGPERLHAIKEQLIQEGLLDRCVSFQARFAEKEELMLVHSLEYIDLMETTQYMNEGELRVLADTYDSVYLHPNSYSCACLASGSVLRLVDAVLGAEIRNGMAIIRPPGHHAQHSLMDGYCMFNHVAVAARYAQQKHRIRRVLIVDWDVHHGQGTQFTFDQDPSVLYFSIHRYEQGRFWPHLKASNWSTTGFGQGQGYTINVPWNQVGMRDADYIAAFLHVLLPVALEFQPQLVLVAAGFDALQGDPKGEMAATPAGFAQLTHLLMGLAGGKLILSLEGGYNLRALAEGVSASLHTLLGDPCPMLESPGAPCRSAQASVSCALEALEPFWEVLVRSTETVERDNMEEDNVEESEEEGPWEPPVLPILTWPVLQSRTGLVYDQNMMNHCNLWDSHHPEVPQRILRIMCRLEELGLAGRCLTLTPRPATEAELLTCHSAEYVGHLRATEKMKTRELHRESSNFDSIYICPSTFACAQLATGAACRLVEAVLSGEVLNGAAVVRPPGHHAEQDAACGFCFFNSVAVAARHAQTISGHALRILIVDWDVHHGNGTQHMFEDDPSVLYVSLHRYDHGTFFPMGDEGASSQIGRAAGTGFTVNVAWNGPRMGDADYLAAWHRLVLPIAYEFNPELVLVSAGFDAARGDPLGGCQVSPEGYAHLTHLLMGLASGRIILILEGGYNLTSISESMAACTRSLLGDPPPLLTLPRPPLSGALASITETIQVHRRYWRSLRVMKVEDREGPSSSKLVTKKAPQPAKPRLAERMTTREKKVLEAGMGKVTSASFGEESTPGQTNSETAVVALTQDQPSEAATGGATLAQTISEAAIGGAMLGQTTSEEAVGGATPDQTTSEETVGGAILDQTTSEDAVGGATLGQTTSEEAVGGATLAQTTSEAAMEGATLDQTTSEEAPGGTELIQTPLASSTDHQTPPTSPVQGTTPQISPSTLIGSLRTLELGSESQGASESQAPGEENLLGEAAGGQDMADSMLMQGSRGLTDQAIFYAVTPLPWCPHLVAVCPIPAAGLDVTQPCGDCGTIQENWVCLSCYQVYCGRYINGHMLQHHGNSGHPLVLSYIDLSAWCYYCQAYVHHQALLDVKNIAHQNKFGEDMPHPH

[6] = biological target: Histone deacetylase 9 (Homo sapiens) (UniProt Q9UKV0); test: Inhibition of human HDAC9 at 330 uM by HDAC-Glo1/2 luminescent assay
Chain of Histone deacetylase 9 (Homo sapiens) (Q9UKV0 whole entry): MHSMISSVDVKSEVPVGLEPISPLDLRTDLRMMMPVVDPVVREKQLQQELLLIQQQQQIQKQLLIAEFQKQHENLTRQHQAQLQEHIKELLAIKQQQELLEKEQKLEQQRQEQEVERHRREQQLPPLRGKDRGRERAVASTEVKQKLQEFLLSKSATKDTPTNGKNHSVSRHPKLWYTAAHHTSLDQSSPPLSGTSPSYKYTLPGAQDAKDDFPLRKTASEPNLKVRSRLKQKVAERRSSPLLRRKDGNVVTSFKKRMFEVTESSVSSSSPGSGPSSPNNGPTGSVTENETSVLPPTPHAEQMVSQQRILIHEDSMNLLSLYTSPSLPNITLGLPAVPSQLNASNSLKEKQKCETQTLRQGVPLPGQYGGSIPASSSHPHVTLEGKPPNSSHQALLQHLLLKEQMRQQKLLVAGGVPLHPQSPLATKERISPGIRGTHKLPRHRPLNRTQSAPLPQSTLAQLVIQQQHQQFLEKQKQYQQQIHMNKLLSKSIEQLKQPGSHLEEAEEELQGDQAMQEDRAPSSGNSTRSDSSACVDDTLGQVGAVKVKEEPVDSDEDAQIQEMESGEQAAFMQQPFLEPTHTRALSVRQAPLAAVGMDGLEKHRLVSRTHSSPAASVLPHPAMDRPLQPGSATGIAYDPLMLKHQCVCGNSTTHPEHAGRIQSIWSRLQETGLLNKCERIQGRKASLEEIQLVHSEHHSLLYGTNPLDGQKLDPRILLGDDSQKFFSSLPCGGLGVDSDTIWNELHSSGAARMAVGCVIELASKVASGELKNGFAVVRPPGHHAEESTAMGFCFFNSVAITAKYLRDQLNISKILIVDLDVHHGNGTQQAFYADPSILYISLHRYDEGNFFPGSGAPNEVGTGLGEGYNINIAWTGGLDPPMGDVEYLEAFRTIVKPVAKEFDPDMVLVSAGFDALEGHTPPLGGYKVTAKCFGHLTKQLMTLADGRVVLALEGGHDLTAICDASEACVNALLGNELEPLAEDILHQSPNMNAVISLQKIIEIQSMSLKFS

## CC(C)=CCOc1ccc(C/C(=N\O)C(=O)NO)cc1
A9 [1]
  inhibition: Dose-dependent effect
[2]
  IC50: 7 µM
A9 [3]
  inhibition: Dose-dependent effect
[4]
  IC50: 7 µM

## COC(=O)C(Cc1ccc(OCC=C(C)C)cc1)N(O)C(=O)/C(C)=N/O (stereo unspecified)
[5]
  inhibition: 69%
[6]
  inhibition: inactive
